Results as given in PubChem BioAssay AID248 (DTP/NCI, 2004).
Values joined by “and” are separate entries in the source; they are usually repeats but may differ in a detail not shown here. Equal entries are not always repeated. Toxic doses and inconclusive results are not listed. Cut-off read from the data, not from the text of the source: active = T/C of 150% or more; inactive = T/C below 125%.

Tested on: L1210 leukemia ip in BDF1 mice, survival T/C
Assay: NCI In Vivo Anticancer Drug Screen. Data for tumor model L1210 Leukemia (intraperitoneal) in B6D2F1 (BDF1) mice
Conditions: endpoint: mean survival time, higher = longer survival
Outline: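 In this screen, tumor-bearing mice given compound are compared to those given vehicle, and their survival values are reported as a treated-to-control quotient.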

[1] = dose: 100.0 mg/kg/injection, schedule: Q01DX001 (ip), vehicle: carboxymethylcellulose (CMC)
[2] = dose: 200.0 mg/kg/injection, schedule: Q01DX001 (ip), vehicle: carboxymethylcellulose (CMC)
[3] = dose: 400.0 mg/kg/injection, schedule: Q01DX001 (ip), vehicle: carboxymethylcellulose (CMC)
[4] = dose: 100.0 mg/kg/injection, schedule: Q04DX003 (ip), vehicle: Klucel (hydroxypropylcellulose) (HPC)
[5] = dose: 200.0 mg/kg/injection, schedule: Q04DX003 (ip), vehicle: Klucel (hydroxypropylcellulose) (HPC)
[6] = dose: 400.0 mg/kg/injection, schedule: Q04DX003 (ip), vehicle: Klucel (hydroxypropylcellulose) (HPC)
[7] = dose: 400.0 mg/kg/injection, schedule: Q04DX002 (ip), vehicle: saline with Tween-80
[8] = dose: 100.0 mg/kg/injection, schedule: Q04DX002 (ip), vehicle: Klucel (hydroxypropylcellulose) (HPC)
[9] = dose: 200.0 mg/kg/injection, schedule: Q04DX002 (ip), vehicle: Klucel (hydroxypropylcellulose) (HPC)

Measured: T/C

COc1cc2c(cc1OC)C(Cc1ccc([N+](=O)[O-])cc1)=[N+](C)CC2
inactive: [1] 103 % of control | [2] 105 % of control | [3] 108 % of control

CCOCCOCCOC(C)Oc1ccc(C(C)C)cc1 (stereo not given)
inactive: dose: 100.0 mg/kg/injection, schedule: Q04DX002 (ip), vehicle: saline 93 % of control | dose: 200.0 mg/kg/injection, schedule: Q04DX002 (ip), vehicle: saline 104 % of control | dose: 400.0 mg/kg/injection, schedule: Q04DX002 (ip), vehicle: saline 101 % of control

Nc1ccn(C2OC(CO)C(OC3OC4COC(c5ccccc5)OC4C(O)C3O)C(O)C2O)c(=O)n1 (stereo not given)
inactive: dose: 22.5 mg/kg/injection, schedule: Q01DX001 (ip), vehicle: carboxymethylcellulose (CMC) 105 % of control | dose: 45.0 mg/kg/injection, schedule: Q01DX001 (ip), vehicle: carboxymethylcellulose (CMC) 100 % of control | dose: 90.0 mg/kg/injection, schedule: Q01DX001 (ip), vehicle: carboxymethylcellulose (CMC) 116 % of control | dose: 180.0 mg/kg/injection, schedule: Q01DX001 (ip), vehicle: carboxymethylcellulose (CMC) 97 % of control

CCc1c(Cl)nc(N)nc1Nc1ccc(C)c(C)c1
inactive: dose: 100.0 mg/kg/injection, schedule: Q01DX Z (ip), vehicle: methylcellulose (MC) 91 % of control | dose: 200.0 mg/kg/injection, schedule: Q01DX Z (ip), vehicle: methylcellulose (MC) 93 % of control

CCCCCCCCCC(=O)Oc1nncc(=O)[nH]1
inactive: dose: 50.0 mg/kg/injection, schedule: Q01DX009 (ip), vehicle: saline 87 % of control | dose: 100.0 mg/kg/injection, schedule: Q01DX009 (ip), vehicle: saline 97 % of control | dose: 200.0 mg/kg/injection, schedule: Q01DX009 (ip), vehicle: saline 104 % of control

O=C(Nc1ccccc1C(=O)c1ccccn1)c1ccccc1
inactive: [4] 104 % of control | [5] 98 % of control | [6] 101 % of control

c1cc[c]([GeH]([c]2ccccc2)[c]2ccccc2)cc1
inactive: dose: 64.0 mg/kg/injection, schedule: Q04DX002 (ip), vehicle: saline with Tween-80 91 % of control | dose: 160.0 mg/kg/injection, schedule: Q04DX002 (ip), vehicle: saline with Tween-80 94 % of control | [7] 97 % of control

C[N+](C)(C)CCO
inactive: dose: 50.0 mg/kg/injection, schedule: Q04DX003 (ip), vehicle: none 99 % of control and 105 % of control | dose: 100.0 mg/kg/injection, schedule: Q04DX003 (ip), vehicle: none 97 % of control and 102 % of control | dose: 100.0 mg/kg/injection, schedule: Q04DX003 (ip), vehicle: saline 95 % of control | dose: 200.0 mg/kg/injection, schedule: Q04DX003 (ip), vehicle: none 96 % of control and 99 % of control | dose: 200.0 mg/kg/injection, schedule: Q04DX003 (ip), vehicle: saline 96 % of control | dose: 400.0 mg/kg/injection, schedule: Q04DX003 (ip), vehicle: saline 106 % of control

CC(C)(C)c1ccc(/C=[N+](\[O-])C(C)(C)C)c(C(C)(C)C)c1O
inactive: dose: 50.0 mg/kg/injection, schedule: Q04DX002 (ip), vehicle: saline with Tween-80 102 % of control | dose: 100.0 mg/kg/injection, schedule: Q04DX002 (ip), vehicle: saline with Tween-80 98 % of control | dose: 200.0 mg/kg/injection, schedule: Q04DX002 (ip), vehicle: saline with Tween-80 102 % of control | [7] 95 % of control

O=C(OCCCOC(=O)c1cccc([N+](=O)[O-])c1)c1cccc([N+](=O)[O-])c1
inactive: dose: 100.0 mg/kg/injection, schedule: Q01DX001 (ip), vehicle: other 101 % of control | dose: 200.0 mg/kg/injection, schedule: Q01DX001 (ip), vehicle: other 98 % of control | dose: 400.0 mg/kg/injection, schedule: Q01DX001 (ip), vehicle: other 102 % of control

C[N+]1(C)CCS(=O)(=O)CC1
inactive: [8] 104 % of control | [9] 110 % of control

C1=C(c2ccccc2)N2CCN=C2S1
inactive: dose: 50.0 mg/kg/injection, schedule: Q01DX001 (ip), vehicle: carboxymethylcellulose (CMC) 100 % of control

Cc1ccc(COC(=O)Nc2ccc(C)c(NC(=O)OCc3ccc(C)cc3)c2)cc1
inactive: dose: 100.0 mg/kg/injection, schedule: Q01DX009 (ip), vehicle: saline with Tween-80 90 % of control | dose: 400.0 mg/kg/injection, schedule: Q01DX009 (ip), vehicle: saline with Tween-80 90 % of control

N=C(c1ccccc1)c1ccccc1
inactive: dose: 100.0 mg/kg/injection, schedule: Q01DX001 (ip), vehicle: saline with Tween-80 100 % of control | dose: 200.0 mg/kg/injection, schedule: Q01DX001 (ip), vehicle: saline with Tween-80 101 % of control | dose: 400.0 mg/kg/injection, schedule: Q01DX001 (ip), vehicle: saline with Tween-80 94 % of control

N/C(=N\[N+](=O)[O-])Nc1ccccn1
inactive: [8] 95 % of control | [9] 98 % of control | dose: 400.0 mg/kg/injection, schedule: Q04DX002 (ip), vehicle: Klucel (hydroxypropylcellulose) (HPC) 109 % of control

CC(=S)c1ccccc1
inactive: dose: 50.0 mg/kg/injection, schedule: Q04DX003 (ip), vehicle: Klucel (hydroxypropylcellulose) (HPC) 102 % of control | [4] 107 % of control | [5] 92 % of control | [6] 97 % of control

COC(=O)/C(=C\c1ccncc1)c1cccc2ccccc12
inactive: dose: 100.0 mg/kg/injection, schedule: Q04DX003 (ip), vehicle: saline with Tween-80 104 % of control | dose: 200.0 mg/kg/injection, schedule: Q04DX003 (ip), vehicle: saline with Tween-80 100 % of control | dose: 400.0 mg/kg/injection, schedule: Q04DX003 (ip), vehicle: saline with Tween-80 94 % of control

Cc1cc2oc(=O)c3c(c2c(O)c1CN1CCCCC1)CCCC3
inactive: [1] 98 % of control | [2] 98 % of control | [3] 96 % of control
